# Measured values as given in US10676747B2, “Methods for improving cognitive function via modulation of quinone reductase 2” (Carmel-Haifa University Economic Corp. Ltd., priority 2014, dated 2020).
# Assays:
# QR2 = target: T1, QR2 (Homo sapiens, UniProt P16083); conditions: literature statement; cited from earlier work
# T1 sequence (P16083 1-231): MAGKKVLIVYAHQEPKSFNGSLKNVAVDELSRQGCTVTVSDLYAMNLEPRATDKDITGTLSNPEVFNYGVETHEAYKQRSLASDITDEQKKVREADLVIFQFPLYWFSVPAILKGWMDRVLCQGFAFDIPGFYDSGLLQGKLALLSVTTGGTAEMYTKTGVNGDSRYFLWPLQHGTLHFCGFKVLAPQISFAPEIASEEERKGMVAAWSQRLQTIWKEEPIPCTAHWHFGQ
# rats [1] = assay: LI-CTA protocol: positive taste memory after QR2 inhibitor injection; format: in vivo, rat; conditions: n=8; for Aversion index (AI): 0.1% saccharin, inhibitor 10 mg/kg i.p. one hour before pre-exposure, choice test three days after LiCl, mean+/-SEM; for AI compared with vehicle-injected groups (CTA and LI-CTA): Fisher's LSD post-hoc test
# Description: (§1) Subjects—Adult male Wistar Hola rats (Harlan Laboratories, Jerusalem) within a weight range of 200-300 gr (corresponding to an age of 8 to 12 weeks) were used for this study. They were maintained on a 12 hour light/dark cycle and all experiments were carried out during the light cycle. Additionally, the rats had ad libtum access to food and water unless otherwise indicated. The procedures were performed in strict accordance with the University of Haifa regulations and the US National Institutes of Health guidelines (NIH publication number 8023).
# (§2) The vehicle—In all of the experiments in which we utilized pharmacological agents they were prepared in physiological saline. Physiological saline was prepared in house by dissolving NaCl in DDW (0.9% w/v). The physiological saline was injected to the controls in all experiments in which the test group(s) was injected with a pharmacological agent. The same volume of the vehicle was injected as the pharmacological agent.
# (§3) QR2 inhibitors—We used two inhibitors of QR2 activity, S29434 and S26695, obtained from Pharmacolgie Moleculaire et Cellulaire, Institut de Recherches Servier. The inhibitors were dissolved in dimethyl sulfoxide (DMSO) and then added to physiological saline. The final concentration of dimethyl sulfoxide in the physiological saline was 5%. These inhibitors were injected prior to the learning process intraperitoneally (i.p.) 10 mg/kg.
# (§4) Aversion index—the aversion index is calculated by the following equation [(total water ingested/(novel taste liquid ingested+water ingested))*100].
# (§5) Conditioned Taste Aversion (CTA)—Two groups of rats were deprived from water for a period of 24 hours. This was followed by 3 days of restriction were the rats received two pipettes each filled with 10 ml of water for 20 minutes each day. On the fourth day both groups received two pipettes each filled with 10 ml of an unfamiliar tasting liquid, either saccharine (0.1% w/v) or NaCl (0.3% w/v), for 20 minutes. Forty minutes following the exposure to the novel liquid the rats in the experimental group received an injection of LiCl (prepared in double distilled water (DDW)) (2% bodyweight, intraperitoneally (i.p.)) and those in the control received an injection of physiological saline (2% bodyweight, i.p.).
# LI-CTA learning paradigm. This paradigm presents the animal with a novel taste. The animal is then given 48 hours during which it will form a memory of the taste and will consider the taste to be a safe taste. The animal will then be presented with the taste again and then injected with LiCl in order to induce malaise. Normally when an animal is presented with a taste and then has malaise induced (CTA) the animal will form a very high aversion to that taste. […]
# rats [2] = assay: CTA protocol with NaCl: negative taste memory after QR2 inhibitor injection; format: in vivo, rat; conditions: n=8; for AI compared with vehicle-injected group: CTA with NaCl, Fisher's LSD test; for Aversion index (AI): CTA, 0.5% NaCl, LiCl 0.03M, inhibitor 10 mg/kg i.p. one hour before, mean+/-SEM
# Description: as §1, §2, §3, §4
# as §5, with “On the fourth day both groups received two pipettes each filled with 10 ml of an unfamiliar tasting liquid, either saccharine (0.1% w/v) or NaCl (0.3% w/v), for 20 minutes.” left out
# M&M—We used three groups in this experiment, all of which were subjected to three days of water restriction. Following the three day water restriction period one group was injected with the vehicle; one group with S29434; one group with S26695. Then, one hour after the injections, all three groups were subjected to the CTA protocol: we gave them access to two pipettes containing 10 ml of 0.5% w/v NaCl each (a novel taste) for 20 minutes (in this experiment NaCl as the novel taste was used since CTA conducted with NaCl leads to a lower AI which prevents a ceiling effect from occurring and allows us to evaluate if the inhibitors generate an increase in learning and therefore a higher AI). […]
Compound,QR2 inhibition (QR2),Aversion index (AI) (rats [1]),AI compared with vehicle-injected groups (CTA and LI-CTA) (rats [1]),AI compared with vehicle-injected group (rats [2]),Aversion index (AI) (rats [2])
COc1ccc2[nH]cc(CCNC(C)=O)c2c1 [Melatonin],inhibits QR2 activity,–,–,–,–
"CNS(=O)(=O)c1ccc2cccc(CCNC(C)=O)c2c1 [S26695, N-[2-(7-methylaminosulfonyl-1-naphthyl)ethyl]acetamide]",–,68.44+/−4.44,significantly lower AI,significantly higher AI,86.84+/−2.17
"COc1ccc2c(n1)c(CCNC(=O)c1ccco1)c1n2Cc2cccnc2-1 [S29434, N-[2-(2-methoxy-6h-dipyrido[2,3-α:3,2-e]pyrrolizin-11-yl)ethyl]-2-furamide]",–,56.16+/−6.15,significantly lower AI,significantly higher AI,92%
Oc1ccc(/C=C/c2cc(O)cc(O)c2)cc1 [resveratrol],efficiently inhibits QR2,–,–,–,–
